How the values were obtained:
[1] = test system: Tyrosine-protein kinase ABL1 (Homo sapiens), P00519 [E255K]; settings: Compound concentration 1000.0 nM
[2] = test system: Tyrosine-protein kinase ABL1 (Homo sapiens), P00519 [F317I]; settings: Compound concentration 1000.0 nM
[3] = test system: Tyrosine-protein kinase ABL1 (Homo sapiens), P00519 [T315I]; settings: Compound concentration 1000.0 nM
[4] = target: RAC-beta serine/threonine-protein kinase (Homo sapiens) (UniProt P31751); settings: Compound concentration 1000.0 nM
[5] = target: Calcium/calmodulin-dependent protein kinase type 1B (Homo sapiens) (UniProt Q6P2M8); settings: Compound concentration 1000.0 nM
[6] = target: Calcium/calmodulin-dependent protein kinase kinase 2 (Homo sapiens) (UniProt Q96RR4); settings: Compound concentration 1000.0 nM
Calcium/calmodulin-dependent protein kinase kinase 2 (Homo sapiens), sequence (Q96RR4 2-588 limits assumed): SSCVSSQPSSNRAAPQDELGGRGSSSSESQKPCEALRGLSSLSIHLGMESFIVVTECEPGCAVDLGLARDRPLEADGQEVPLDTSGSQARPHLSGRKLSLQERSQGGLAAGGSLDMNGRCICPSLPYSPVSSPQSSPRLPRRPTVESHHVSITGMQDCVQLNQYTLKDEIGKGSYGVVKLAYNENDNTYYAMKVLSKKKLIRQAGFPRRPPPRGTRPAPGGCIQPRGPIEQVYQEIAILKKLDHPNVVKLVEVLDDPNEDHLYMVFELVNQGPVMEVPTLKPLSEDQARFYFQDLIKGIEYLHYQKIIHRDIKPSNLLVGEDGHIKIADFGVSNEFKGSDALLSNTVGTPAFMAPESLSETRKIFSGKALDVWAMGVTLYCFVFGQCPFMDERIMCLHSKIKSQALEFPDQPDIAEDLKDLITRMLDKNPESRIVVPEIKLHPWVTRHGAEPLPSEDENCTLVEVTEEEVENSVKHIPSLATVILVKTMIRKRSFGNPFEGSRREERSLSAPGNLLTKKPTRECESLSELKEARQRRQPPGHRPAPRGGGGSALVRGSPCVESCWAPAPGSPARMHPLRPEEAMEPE

[7] = target: Dual specificity protein kinase CLK2 (Homo sapiens) (UniProt P49760); settings: Compound concentration 1000.0 nM
Dual specificity protein kinase CLK2 (Homo sapiens), sequence (P49760 whole entry, looked up): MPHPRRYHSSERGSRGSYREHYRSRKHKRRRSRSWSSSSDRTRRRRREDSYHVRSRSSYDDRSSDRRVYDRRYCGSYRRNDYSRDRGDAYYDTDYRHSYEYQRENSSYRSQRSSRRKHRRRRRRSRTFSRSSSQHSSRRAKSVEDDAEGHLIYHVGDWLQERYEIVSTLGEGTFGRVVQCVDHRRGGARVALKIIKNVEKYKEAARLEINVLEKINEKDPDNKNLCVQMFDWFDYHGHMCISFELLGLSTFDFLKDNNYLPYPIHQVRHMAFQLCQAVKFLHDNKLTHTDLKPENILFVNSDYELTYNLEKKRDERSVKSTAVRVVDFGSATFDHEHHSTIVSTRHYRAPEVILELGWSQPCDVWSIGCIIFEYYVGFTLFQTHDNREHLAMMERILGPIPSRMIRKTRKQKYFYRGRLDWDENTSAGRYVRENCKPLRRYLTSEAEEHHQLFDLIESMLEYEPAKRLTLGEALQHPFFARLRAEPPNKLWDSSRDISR

[8] = target: Tyrosine-protein kinase CSK (Homo sapiens) (UniProt P41240); settings: Compound concentration 1000.0 nM
[9] = target: Casein kinase I isoform alpha (Homo sapiens) (UniProt P48729); settings: Compound concentration 1000.0 nM
[10] = target: Casein kinase I isoform delta (Homo sapiens) (UniProt P48730); settings: Compound concentration 1000.0 nM
[11] = target: Serine/threonine-protein kinase 17B (Homo sapiens) (UniProt O94768); settings: Compound concentration 1000.0 nM
[12] = target: Ephrin type-A receptor 2 (Homo sapiens) (UniProt P29317); settings: Compound concentration 1000.0 nM
[13] = target: Receptor tyrosine-protein kinase erbB-3 (Homo sapiens) (UniProt P21860); settings: Compound concentration 1000.0 nM
[14] = test system: Receptor-type tyrosine-protein kinase FLT3 (Homo sapiens), P36888 [D835Y]; settings: Compound concentration 1000.0 nM
[15] = test system: Receptor-type tyrosine-protein kinase FLT3 (Homo sapiens), P36888 [R834Q]; settings: Compound concentration 1000.0 nM
[16] = target: Cyclin-G-associated kinase (Homo sapiens) (UniProt O14976); settings: Compound concentration 1000.0 nM
[17] = target: G protein-coupled receptor kinase 4 (Homo sapiens) (UniProt P32298); settings: Compound concentration 1000.0 nM
[18] = target: Glycogen synthase kinase-3 alpha (Homo sapiens) (UniProt P49840); settings: Compound concentration 1000.0 nM
[19] = target: Insulin receptor (Homo sapiens) (UniProt P06213); settings: Compound concentration 1000.0 nM
Insulin receptor (Homo sapiens), sequence (P06213 28-758 limits assumed): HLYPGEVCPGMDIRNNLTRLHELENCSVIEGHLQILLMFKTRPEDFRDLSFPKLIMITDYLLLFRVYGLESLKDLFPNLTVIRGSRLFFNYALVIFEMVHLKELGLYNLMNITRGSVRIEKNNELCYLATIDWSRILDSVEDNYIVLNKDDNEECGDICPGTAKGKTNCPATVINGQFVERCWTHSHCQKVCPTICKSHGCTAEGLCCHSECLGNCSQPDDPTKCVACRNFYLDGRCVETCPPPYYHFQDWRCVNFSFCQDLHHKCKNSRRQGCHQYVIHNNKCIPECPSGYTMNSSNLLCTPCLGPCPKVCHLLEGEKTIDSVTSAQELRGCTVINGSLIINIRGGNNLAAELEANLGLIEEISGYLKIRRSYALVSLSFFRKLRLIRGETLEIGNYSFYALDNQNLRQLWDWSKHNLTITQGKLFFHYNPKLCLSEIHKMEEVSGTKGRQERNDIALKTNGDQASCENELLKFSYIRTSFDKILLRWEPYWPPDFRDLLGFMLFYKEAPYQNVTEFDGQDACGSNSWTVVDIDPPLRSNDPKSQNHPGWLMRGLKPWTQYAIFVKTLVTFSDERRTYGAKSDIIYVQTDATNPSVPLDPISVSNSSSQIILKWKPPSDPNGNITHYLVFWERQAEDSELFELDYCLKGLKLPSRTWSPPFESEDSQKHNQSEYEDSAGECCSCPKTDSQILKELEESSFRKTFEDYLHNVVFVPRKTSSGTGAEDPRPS
Insulin receptor (Homo sapiens), sequence (P06213 763-1382 limits assumed): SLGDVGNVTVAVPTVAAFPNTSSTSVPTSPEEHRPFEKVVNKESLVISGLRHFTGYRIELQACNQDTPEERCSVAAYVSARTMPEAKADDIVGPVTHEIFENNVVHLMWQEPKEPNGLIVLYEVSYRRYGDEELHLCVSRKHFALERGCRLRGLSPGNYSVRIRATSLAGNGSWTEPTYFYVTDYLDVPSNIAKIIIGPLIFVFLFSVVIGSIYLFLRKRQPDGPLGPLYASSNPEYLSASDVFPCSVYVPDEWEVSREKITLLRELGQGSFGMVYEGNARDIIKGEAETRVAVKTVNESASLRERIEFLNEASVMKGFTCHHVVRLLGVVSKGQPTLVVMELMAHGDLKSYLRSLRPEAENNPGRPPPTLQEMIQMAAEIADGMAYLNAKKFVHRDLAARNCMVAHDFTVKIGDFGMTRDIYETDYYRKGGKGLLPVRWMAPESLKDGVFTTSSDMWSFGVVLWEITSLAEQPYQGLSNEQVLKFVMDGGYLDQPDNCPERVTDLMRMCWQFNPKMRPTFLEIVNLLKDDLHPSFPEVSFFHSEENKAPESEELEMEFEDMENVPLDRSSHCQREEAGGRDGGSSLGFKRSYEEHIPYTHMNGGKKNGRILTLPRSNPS

[20] = target: Tyrosine-protein kinase JAK1 (Homo sapiens) (UniProt P23458); settings: Compound concentration 1000.0 nM
[21] = target: Tyrosine-protein kinase JAK3 (Homo sapiens) (UniProt P52333); settings: Compound concentration 1000.0 nM
[22] = test system: Mast/stem cell growth factor receptor Kit (Homo sapiens), P10721 [A829P]; settings: Compound concentration 1000.0 nM
[23] = target: Serine/threonine-protein kinase LATS2 (Homo sapiens) (UniProt Q9NRM7); settings: Compound concentration 1000.0 nM
[24] = target: Mitogen-activated protein kinase kinase kinase 1 (Homo sapiens) (UniProt Q13233); settings: Compound concentration 1000.0 nM
[25] = target: Mitogen-activated protein kinase kinase kinase kinase 2 (Homo sapiens) (UniProt Q12851); settings: Compound concentration 1000.0 nM
[26] = target: Dual specificity mitogen-activated protein kinase kinase 3 (Homo sapiens) (UniProt P46734); settings: Compound concentration 1000.0 nM
[27] = test system: Hepatocyte growth factor receptor (Homo sapiens), P08581 [M1250T]; settings: Compound concentration 1000.0 nM
[28] = target: Serine/threonine-protein kinase 4 (Homo sapiens) (UniProt Q13043); settings: Compound concentration 1000.0 nM
Serine/threonine-protein kinase 4 (Homo sapiens), sequence (Q13043 whole entry): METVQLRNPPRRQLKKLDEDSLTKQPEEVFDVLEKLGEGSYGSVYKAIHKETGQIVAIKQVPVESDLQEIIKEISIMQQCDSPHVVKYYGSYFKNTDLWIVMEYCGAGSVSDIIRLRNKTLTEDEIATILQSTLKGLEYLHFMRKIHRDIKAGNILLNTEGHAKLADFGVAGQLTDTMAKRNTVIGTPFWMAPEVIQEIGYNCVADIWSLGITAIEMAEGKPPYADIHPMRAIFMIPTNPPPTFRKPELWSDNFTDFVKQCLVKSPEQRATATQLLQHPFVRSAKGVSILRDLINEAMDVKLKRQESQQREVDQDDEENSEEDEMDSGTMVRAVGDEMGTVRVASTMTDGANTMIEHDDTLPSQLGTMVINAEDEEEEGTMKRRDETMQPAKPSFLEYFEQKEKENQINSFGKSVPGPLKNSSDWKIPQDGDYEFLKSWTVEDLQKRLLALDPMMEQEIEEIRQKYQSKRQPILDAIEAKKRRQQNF

[29] = target: Serine/threonine-protein kinase mTOR (Homo sapiens) (UniProt P42345); settings: Compound concentration 1000.0 nM
[30] = target: Myosin light chain kinase family member 4 (Homo sapiens) (UniProt Q86YV6); settings: Compound concentration 1000.0 nM
[31] = target: Serine/threonine-protein kinase Nek5 (Homo sapiens) (UniProt Q6P3R8); settings: Compound concentration 1000.0 nM
[32] = target: Mitogen-activated protein kinase 14 (Homo sapiens) (UniProt Q16539); settings: Compound concentration 1000.0 nM
[33] = target: Cyclin-dependent kinase 16 (Homo sapiens) (UniProt Q00536); settings: Compound concentration 1000.0 nM
[34] = target: Cyclin-dependent kinase 17 (Homo sapiens) (UniProt Q00537); settings: Compound concentration 1000.0 nM
[35] = test system: Phosphatidylinositol 4,5-bisphosphate 3-kinase catalytic subunit alpha isoform (Homo sapiens), P42336 [E545A]; settings: Compound concentration 1000.0 nM
[36] = target: Serine/threonine-protein kinase PLK1 (Homo sapiens) (UniProt P53350); settings: Compound concentration 1000.0 nM
[37] = target: Protein-tyrosine kinase 2-beta (Homo sapiens) (UniProt Q14289); settings: Compound concentration 1000.0 nM
[38] = target: Proto-oncogene tyrosine-protein kinase receptor Ret (Homo sapiens) (UniProt P07949); settings: Compound concentration 1000.0 nM
Proto-oncogene tyrosine-protein kinase receptor Ret (Homo sapiens), sequence (P07949 whole entry): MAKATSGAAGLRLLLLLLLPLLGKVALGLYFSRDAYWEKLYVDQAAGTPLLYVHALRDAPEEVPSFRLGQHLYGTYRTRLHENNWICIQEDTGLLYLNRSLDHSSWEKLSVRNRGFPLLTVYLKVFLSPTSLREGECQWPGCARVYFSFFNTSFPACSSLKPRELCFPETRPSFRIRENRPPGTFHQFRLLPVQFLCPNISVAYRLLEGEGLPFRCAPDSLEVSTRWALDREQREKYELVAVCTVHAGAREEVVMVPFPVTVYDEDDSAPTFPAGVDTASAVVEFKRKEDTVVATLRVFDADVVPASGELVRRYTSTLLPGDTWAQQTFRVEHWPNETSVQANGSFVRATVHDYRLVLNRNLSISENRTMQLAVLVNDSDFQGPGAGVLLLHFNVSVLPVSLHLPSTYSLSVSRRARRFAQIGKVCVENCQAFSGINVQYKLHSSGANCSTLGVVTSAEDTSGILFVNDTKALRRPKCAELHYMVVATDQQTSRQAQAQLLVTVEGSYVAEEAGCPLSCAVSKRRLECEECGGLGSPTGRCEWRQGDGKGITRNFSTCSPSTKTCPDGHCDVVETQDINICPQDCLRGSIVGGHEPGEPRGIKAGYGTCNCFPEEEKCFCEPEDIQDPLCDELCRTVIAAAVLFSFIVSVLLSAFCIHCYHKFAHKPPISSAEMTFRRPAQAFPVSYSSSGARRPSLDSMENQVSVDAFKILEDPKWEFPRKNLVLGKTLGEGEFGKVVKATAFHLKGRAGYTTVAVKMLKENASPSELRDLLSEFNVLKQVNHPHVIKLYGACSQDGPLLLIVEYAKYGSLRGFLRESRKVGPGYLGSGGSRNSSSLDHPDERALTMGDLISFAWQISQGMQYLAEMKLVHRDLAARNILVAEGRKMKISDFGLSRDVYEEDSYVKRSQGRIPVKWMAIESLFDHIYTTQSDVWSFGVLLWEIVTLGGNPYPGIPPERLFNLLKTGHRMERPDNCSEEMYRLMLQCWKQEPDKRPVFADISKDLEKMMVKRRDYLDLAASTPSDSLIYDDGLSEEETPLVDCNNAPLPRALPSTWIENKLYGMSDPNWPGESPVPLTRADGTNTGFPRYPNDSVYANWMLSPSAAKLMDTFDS

[39] = target: Rho-associated protein kinase 2 (Homo sapiens) (UniProt O75116); settings: Compound concentration 1000.0 nM
[40] = target: Serine/threonine-protein kinase 33 (Homo sapiens) (UniProt Q9BYT3); settings: Compound concentration 1000.0 nM
[41] = target: Serine/threonine-protein kinase TBK1 (Homo sapiens) (UniProt Q9UHD2); settings: Compound concentration 1000.0 nM
[42] = target: NT-3 growth factor receptor (Homo sapiens) (UniProt Q16288); settings: Compound concentration 1000.0 nM
[43] = target: D(2) dopamine receptor (Homo sapiens) (UniProt P14416); settings: Compound concentration 10.0 uM
D(2) dopamine receptor (Homo sapiens), sequence (P14416 whole entry): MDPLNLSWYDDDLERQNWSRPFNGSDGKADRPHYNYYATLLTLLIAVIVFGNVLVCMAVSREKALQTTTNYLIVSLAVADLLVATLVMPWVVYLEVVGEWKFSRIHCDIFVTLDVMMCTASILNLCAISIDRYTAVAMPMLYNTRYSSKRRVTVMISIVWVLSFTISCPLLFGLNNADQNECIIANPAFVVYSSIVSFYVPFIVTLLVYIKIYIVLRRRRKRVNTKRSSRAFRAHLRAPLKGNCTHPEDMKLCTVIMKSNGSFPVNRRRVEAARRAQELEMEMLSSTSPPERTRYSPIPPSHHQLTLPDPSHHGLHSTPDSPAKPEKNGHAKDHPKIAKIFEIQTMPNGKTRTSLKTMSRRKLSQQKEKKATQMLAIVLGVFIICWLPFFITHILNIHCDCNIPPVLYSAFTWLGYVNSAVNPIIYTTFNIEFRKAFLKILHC

[44] = target: Delta-type opioid receptor (Homo sapiens) (UniProt P41143); settings: Compound concentration 10.0 uM
[45] = target: Histamine H2 receptor (Homo sapiens) (UniProt P25021); settings: Compound concentration 10.0 uM
Histamine H2 receptor (Homo sapiens), sequence (P25021 whole entry): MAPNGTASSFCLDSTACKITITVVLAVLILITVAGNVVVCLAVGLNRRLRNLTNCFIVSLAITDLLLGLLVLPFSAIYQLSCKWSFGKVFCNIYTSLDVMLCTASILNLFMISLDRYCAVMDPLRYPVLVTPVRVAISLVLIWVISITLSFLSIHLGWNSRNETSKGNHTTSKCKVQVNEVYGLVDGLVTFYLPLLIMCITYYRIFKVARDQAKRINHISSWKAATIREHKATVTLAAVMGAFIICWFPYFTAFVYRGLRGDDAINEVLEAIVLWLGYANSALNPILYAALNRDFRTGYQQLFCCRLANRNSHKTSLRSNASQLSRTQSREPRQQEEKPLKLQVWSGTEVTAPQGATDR

[46] = target: Muscarinic acetylcholine receptor M5 (Homo sapiens) (UniProt P08912); settings: Compound concentration 10.0 uM

Work on `C[C@@H](c1cccc(C#N)c1)n1cc(Cl)cc(C(N)=O)c1=N` [(S)-9s] yielded a residual activity [1] of 82%, a residual activity [2] of 100% and a residual activity [3] of 0%. The residual activity [4] was 93%, the residual activity [5] was 88% and the residual activity [6] was 100%. The residual activity [7] was 100%, the residual activity [8] was 97% and the residual activity [9] was 81%. For the same compound, the residual activity [10] was 100%, the residual activity [11] was 72% and the residual activity [12] was 88%. For the same compound, the residual activity [13] was 91%, the residual activity [14] was 97% and the residual activity [15] was 100%. For the same compound, the residual activity [16] was 100%, the residual activity [17] was 99% and the residual activity [18] was 82%. It also gave a residual activity [19] of 100%, a residual activity [20] of 94% and a residual activity [21] of 100%. For the same compound, the residual activity [22] was 100%, the residual activity [23] was 80% and the residual activity [24] was 82%. The residual activity [25] was 90%, the residual activity [26] was 67% and the residual activity [27] was 99%. For the same compound, the residual activity [28] was 100%, the residual activity [29] was 96% and the residual activity [30] was 100%. It also gave a residual activity [31] of 100%, a residual activity [32] of 100% and a residual activity [33] of 96%. It also gave a residual activity [34] of 84%, a residual activity [35] of 98% and a residual activity [36] of 98%. The residual activity [37] was 87%, the residual activity [38] was 100% and the residual activity [39] was 90%. For the same compound, the residual activity [40] was 100%, the residual activity [41] was 89% and the residual activity [42] was 0%. It also gave an inhibition [43] of -3.06%, an inhibition [44] of -3.33% and an inhibition [45] of 8.25%. For the same compound, the inhibition [46] was -1.05%.

`C[C@H](c1cccc(C#N)c1)n1cc(Cl)cc(C(N)=O)c1=N` [(R)-9s] showed a residual activity [1] of 87%, a residual activity [2] of 89% and a residual activity [3] of 96%. It also gave a residual activity [4] of 100%, a residual activity [5] of 89% and a residual activity [6] of 100%. The residual activity [7] was 100%, the residual activity [8] was 100% and the residual activity [9] was 86%. It also gave a residual activity [10] of 100%, a residual activity [11] of 73% and a residual activity [12] of 89%. It also gave a residual activity [13] of 92%, a residual activity [14] of 96% and a residual activity [15] of 100%. It also gave a residual activity [16] of 100%, a residual activity [17] of 100% and a residual activity [18] of 61%. The residual activity [19] was 97%, the residual activity [20] was 57% and the residual activity [21] was 94%. For the same compound, the residual activity [22] was 95%, the residual activity [23] was 84% and the residual activity [24] was 90%. For the same compound, the residual activity [25] was 99%, the residual activity [26] was 73% and the residual activity [27] was 100%. The residual activity [28] was 100%, the residual activity [29] was 91% and the residual activity [30] was 100%. The residual activity [31] was 93%, the residual activity [32] was 100% and the residual activity [33] was 83%. It also gave a residual activity [34] of 91%, a residual activity [35] of 100% and a residual activity [36] of 89%. For the same compound, the residual activity [37] was 100%, the residual activity [38] was 94% and the residual activity [39] was 94%. It also gave a residual activity [40] of 92%, a residual activity [41] of 98% and a residual activity [42] of 96%. For the same compound, the inhibition [43] was 1.55%, the inhibition [44] was -7.87% and the inhibition [45] was 10.8%. The inhibition [46] was 3.44%.

— ChEMBL document CHEMBL4507301 (2021)
